Measurements published in patent US20220354811A1, “METHODS AND COMPOSITIONS FOR MODULATING MACROPHAGES POLARIZATION” (INSERM (INSTITUT NATIONAL DE LA SANTÉ ET DE LA RECHERCHE …, priority 2019, published 2022).

Columns and labels:
caspase 3 = biological target: T1, caspase 3 (Homo sapiens, UniProt P42574); experiment: Recombinant caspase-3 activity in vitro (Ac-DEVD-AMC substrate); format: biochemical; design: using active recombinant proteins of caspase-8 and caspase-3; purchased Enzo life sciences ALX-201-059; conditions: recombinant caspase-3, Ac-DEVD-AMC
T1 sequence (P42574 29-175 limits assumed): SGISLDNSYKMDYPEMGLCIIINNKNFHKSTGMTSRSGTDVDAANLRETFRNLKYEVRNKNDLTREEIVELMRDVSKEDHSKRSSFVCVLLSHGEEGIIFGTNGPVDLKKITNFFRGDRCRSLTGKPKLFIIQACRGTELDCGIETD
T1 sequence (P42574 176-277 limits assumed): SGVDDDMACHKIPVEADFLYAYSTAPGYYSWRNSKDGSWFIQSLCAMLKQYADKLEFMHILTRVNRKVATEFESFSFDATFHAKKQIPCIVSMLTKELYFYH
Description: FIG. 4. […] (A) Measures of caspase-8 activity (IETD-AMC). IETD-CHO treatment is used as positive control in the in vitro assay. The results are expressed as A.U./min and represent the mean of 3 independent experiments realized in duplicate (B) Measures of caspase-3 activity (DEVD-AMC). DEVD-CHO is used as positive control in the in vitro assay. The results are expressed as A.U./min and represent the mean of 3 independent experiments realized in duplicate. Human CSF-1 was purchased from Miltenyi (130-096-493). […] Mouse caspase-8 was from R&D Systems (AF705). HRP-conjugated rabbit anti-goat was purchased from Dako ([…]) and HRP-conjugated goat anti-rabbit was from Cell Signaling (5127). Active recombinant caspase-8 (ALX-201-062) and -3 (ALX-201-059) were from Enzo life sciences. […] Each assay (in triplicate) was performed with 10 μg of protein prepared from control or stimulated cells. […] Enzyme activities were expressed in arbitrary units (A.U.) per min and per mg of proteins. The same protocol was used with 0.25 units of active recombinant caspase-8 (Enzo, ALX-201-062) or -3 (Enzo, ALX-201-059) in each triplicate.

primary human monocytes = experiment: Cell death in CSF-1-treated differentiating monocytes (AnnexinV/DAPI flow cytometry); format: cell-based
Description: FIG. 1. […] (A) Macrophagic differentiation of monocytes from 3 different healthy donors was examined by 3-color flow cytometric analysis. The results are expressed as percentage of CD71/CD163 or CD16/CD163 double positive cells and represent the mean±SD of 3 independent experiments performed in duplicate. (B) Cell death from 3 different healthy donors was examined by flow cytometry analysis. The results are expressed as percentage of AnnexinV/DAPI double positive cells and represent the mean±SD of 3 independent experiments performed in duplicate. n.s. denotes not statistically significant according to a paired student t test. *P<0.05, **P<0.01, ***P<0.001 according to a paired student t test (versus d2).
To analyze the macrophagic differentiation of monocytes, the cells were washed with ice-cold phosphate buffered saline (PBS, Life Technologies, 14190169), incubated at 4° C. for 10 min in PBS/bovine serum albumin (BSA 0.5%, Dutscher, 871002) with anti-CD16, anti-CD71 and anti-CD163 or isotype controls (Miltenyi and BD Biosciences, catalog numbers were 130-113-396, 130-097-628 and 551374). Finally, the cells were washed and fixed in 2% paraformaldehyde (EMS, 15710). To perform macrophage polarization, purified monocytes were plated at 0.3×10^6 per mL in RPMI 1640 medium with glutamax-I supplemented with 10% (vol/vol) fetal bovine serum plus CSF-1 for 5+2 days to differentiate into M0 macrophages. 20 ng/mL IL-4 (Miltenyi, 130-094-117) was added after 5 days of differentiation for two days to polarize into M2-macrophages. To analyze the macrophage polarization, cells were detached using PBS/EDTA/BSA, washed with PBS, and incubated at 4° C. for 10 min in PBS/bovine serum albumin with anti-CD200R (Biolegend, 329308), anti-CD206 (Miltenyi, 130-100-034) and anti-CD163 (Miltenyi, 130-097-628) or isotype controls. Finally, the cells were washed and fixed in 2% paraformaldehyde (EMS, 15710). Fluorescence was measured with a MACSQuant® Analyzer (Miltenyi, Paris, France). To analyze the cell death, cells were washed with ice-cold PBS and incubated at 4° C. for 15 min in a specific buffer (10 mM HEPES, 150 mM NaCl, 5 mM KCl, 1 mM MgCl2, 1 mM CaCl2) with AnnexinV-FITC (Miltenyi, 130-097-928) and DAPI (Sigma-Aldrich, D9542). Fluorescence was measured with a MACSQuant® Analyzer (Miltenyi, Paris, France). To analyze the ability of macrophages to phagocyte bacteria, we used Vybrant® Phagocytosis Assay Kit according manufacture's instruction (ThermoFisher, V-6694). […] Fluorescence, that indicate the internalization of particles, was measured with a MACSQuant® Analyzers (Miltenyi, France). Trypan blue solution was used to quench the fluorescence from particles that were not internalized. […]

[1] = several recent studies (Frenette 2019; Barreyro 2015; Baskin-Bey 2007); cited from earlier work

| SMILES | IC50 (caspase 3) | concentration of maximal inhibition of caspase-3 (caspase 3) | apoptosis induction in undifferentiated monocytes (primary human monocytes) | DAPI staining (primary human monocytes; higher concentrations (3 μM)) | toxicity for primary human monocytes (primary human monocytes; low concentrations (up to 2 μM)) | Annexin V staining (primary human monocytes; low concentrations, CSF-1, 48 h) | liver functions in patients suffering liver diseases [1] |
| --- | --- | --- | --- | --- | --- | --- | --- |
| CC(C)[C@H](NC(=O)c1ccc2ccccc2n1)C(=O)N[C@@H](CC(=O)O)C(=O)COc1c(F)cccc1F [Q-VD-OPh] | ~500 nM | 10 µM | – | – | – | – | – |
| C[C@H](NC(=O)C(=O)Nc1ccccc1C(C)(C)C)C(=O)N[C@@H](CC(=O)O)C(=O)COc1c(F)c(F)cc(F)c1F [Emricasan, (S)-3-((S)-2-(2-((2-(tert-Butyl)phenyl)amino)-2-oxoacetamido)propanamido)-4-oxo-5-(2,3,5,6-tetrafluorophenoxy)pentanoic acid] | ~500 nM | 10 µM | did not induce apoptosis | slightly increased DAPI staining | not toxic | failed to induced significant loss of Annexin V staining | improve liver functions |
